“Also recorded” adds a separate entry of the source.
How the values were obtained:
p300 = p300 (Homo sapiens, UniProt Q09472); test: Histone Acetyltransferase (HAT) in vitro acetylation assay, western blot of H3K27ac / H3K18ac; type: biochemical; conditions: compound in DMSO
Description: The aim of the in vitro acetylation assay is to measure the enzymatic activity of the various compounds towards p300.
First, the drug is prepared:
Second, dilute p300 in AM1 buffer to a concentration of 40 ng/μL (final concentration in the reaction 20 ng/μL). This is accomplished by diluting 1 μL of p300 (at 0.4 μg/μL) into […] of AM1 buffer.
Third, prepare the Master Mix. Prepare the Master Mix in low protein binding tubes (ThermoFisher Cat. No. 90410), 20 μL system.
Incubate reactions at 30° C. for 30 minutes.
Incubate reactions at 30° C. for 1 hour.
Fourth, perform the western blot assay. • Add 6.7 μL of Laemmli Sample Buffer 4× (Bio-Rad Laboratories Cat. No. 161-0737) for each reaction and boil samples at 95° C. for 5 min. • Charge 10 μL for each sample in 2 Tris Glycine 4-15% gels (Bio-Rad Laboratories Cat. No. 456-1086). Running Buffer: Tris-Glycine 1× (pour in the cell up to the writing “2 gels”). • Run at 90 V for 1 hour (until the gel front reaches the green line of cell). • Semi-dry transfer with Trans-Blot® Turbo™ Blotting System from Bio-Rad Laboratories (Trans-Blot® Turbo™ RTA midi PVDF transfer kit Cat. No1704275). • Activate PVDF membrane in methanol for 5 minutes and then wet in Trans-Blot® Turbo™ transfer buffer. • Wet stacks in transfer buffer. • Transfer at 23 V 1.3 A for 7 minutes. • Blocking buffer: 5% Non-Fat milk in TBST (tween 0.1%) 1 hour at room temperature. • Cut the membranes to get Ac-His 3 at 17 kDa and p300 at 300 kDa. • Incubate with primary antibodies overnight at 4° C. • The day after, make 3 washes in TBST (Tween 0.1%) of 10 minutes. • Incubate with secondary antibody at room temperature for 1 hour. • Make 3 washes in TBST (Tween 0.1%) of 5 minutes. • Incubate membranes with ECL (SuperSignal West Dura Extended Duration Substrate from ThermoFisher) for 5 minutes at room temperature. • Acquire the image with ChemiDoc Odyssey Fc 2 minutes.
To detect total H3 (loading control), strip the membranes with Restore™ Western Blot Stripping Buffer according to the manufacturer protocol.
Various compounds were tested for enzymatic activity with respect to Lys 18 and Lys 27. EC50 is indicated for Activators and IC50 for inhibitors respectively.
FIGS. 1A to 25B are graphs showing the lysine residue acetylation as a function of concentration for the compounds set forth in Table 3. The shaded area corresponds to the average values of lysine residue acetylation (continuous line) and their standard error range measured in the absence of compound and DMSO. The number of replicates is represented by “n”.

mice = test: 2 day radial arm water maze (RAWM), spatial short-term memory; type: in vivo
Description: Synaptic plasticity is thought to underlie memory formation. RA010115 was also tested in assays aimed at determining whether the compound can be beneficial to two types of memory, short-term spatial memory that can tested through the 2 day radial arm water maze, and contextual fear memory, a type of associative memory that depends upon hippocampal function and is impaired in AD patients. FIG. 27 is a graph showing that RA010115 rescues oTau- and oAβ-induced defects in the 2-day radial arm water maze test of spatial short-term memory. The performance in the RAWM was impaired in mice administered with oAβ (200 nM) oTau (500 nM). […] The performance was not impaired when mice were treated with only RA010115 or vehicle. (ANOVA for repeated measures among all groups at day 2: F(5, 65)=7.092, p<0.0001. One-way ANOVA for block 10: F(5, 65)=7.385, p<0.0001; Bonferroni's p<0.0001 for both oAβ vs. vehicle and oTau vs. vehicle; oAβ vs RA010115 plus oAβ p<0.001 and for oTau vs RA010115 plus oTau p<0.05.

p300, sequence (Q09472 whole entry, species assumed): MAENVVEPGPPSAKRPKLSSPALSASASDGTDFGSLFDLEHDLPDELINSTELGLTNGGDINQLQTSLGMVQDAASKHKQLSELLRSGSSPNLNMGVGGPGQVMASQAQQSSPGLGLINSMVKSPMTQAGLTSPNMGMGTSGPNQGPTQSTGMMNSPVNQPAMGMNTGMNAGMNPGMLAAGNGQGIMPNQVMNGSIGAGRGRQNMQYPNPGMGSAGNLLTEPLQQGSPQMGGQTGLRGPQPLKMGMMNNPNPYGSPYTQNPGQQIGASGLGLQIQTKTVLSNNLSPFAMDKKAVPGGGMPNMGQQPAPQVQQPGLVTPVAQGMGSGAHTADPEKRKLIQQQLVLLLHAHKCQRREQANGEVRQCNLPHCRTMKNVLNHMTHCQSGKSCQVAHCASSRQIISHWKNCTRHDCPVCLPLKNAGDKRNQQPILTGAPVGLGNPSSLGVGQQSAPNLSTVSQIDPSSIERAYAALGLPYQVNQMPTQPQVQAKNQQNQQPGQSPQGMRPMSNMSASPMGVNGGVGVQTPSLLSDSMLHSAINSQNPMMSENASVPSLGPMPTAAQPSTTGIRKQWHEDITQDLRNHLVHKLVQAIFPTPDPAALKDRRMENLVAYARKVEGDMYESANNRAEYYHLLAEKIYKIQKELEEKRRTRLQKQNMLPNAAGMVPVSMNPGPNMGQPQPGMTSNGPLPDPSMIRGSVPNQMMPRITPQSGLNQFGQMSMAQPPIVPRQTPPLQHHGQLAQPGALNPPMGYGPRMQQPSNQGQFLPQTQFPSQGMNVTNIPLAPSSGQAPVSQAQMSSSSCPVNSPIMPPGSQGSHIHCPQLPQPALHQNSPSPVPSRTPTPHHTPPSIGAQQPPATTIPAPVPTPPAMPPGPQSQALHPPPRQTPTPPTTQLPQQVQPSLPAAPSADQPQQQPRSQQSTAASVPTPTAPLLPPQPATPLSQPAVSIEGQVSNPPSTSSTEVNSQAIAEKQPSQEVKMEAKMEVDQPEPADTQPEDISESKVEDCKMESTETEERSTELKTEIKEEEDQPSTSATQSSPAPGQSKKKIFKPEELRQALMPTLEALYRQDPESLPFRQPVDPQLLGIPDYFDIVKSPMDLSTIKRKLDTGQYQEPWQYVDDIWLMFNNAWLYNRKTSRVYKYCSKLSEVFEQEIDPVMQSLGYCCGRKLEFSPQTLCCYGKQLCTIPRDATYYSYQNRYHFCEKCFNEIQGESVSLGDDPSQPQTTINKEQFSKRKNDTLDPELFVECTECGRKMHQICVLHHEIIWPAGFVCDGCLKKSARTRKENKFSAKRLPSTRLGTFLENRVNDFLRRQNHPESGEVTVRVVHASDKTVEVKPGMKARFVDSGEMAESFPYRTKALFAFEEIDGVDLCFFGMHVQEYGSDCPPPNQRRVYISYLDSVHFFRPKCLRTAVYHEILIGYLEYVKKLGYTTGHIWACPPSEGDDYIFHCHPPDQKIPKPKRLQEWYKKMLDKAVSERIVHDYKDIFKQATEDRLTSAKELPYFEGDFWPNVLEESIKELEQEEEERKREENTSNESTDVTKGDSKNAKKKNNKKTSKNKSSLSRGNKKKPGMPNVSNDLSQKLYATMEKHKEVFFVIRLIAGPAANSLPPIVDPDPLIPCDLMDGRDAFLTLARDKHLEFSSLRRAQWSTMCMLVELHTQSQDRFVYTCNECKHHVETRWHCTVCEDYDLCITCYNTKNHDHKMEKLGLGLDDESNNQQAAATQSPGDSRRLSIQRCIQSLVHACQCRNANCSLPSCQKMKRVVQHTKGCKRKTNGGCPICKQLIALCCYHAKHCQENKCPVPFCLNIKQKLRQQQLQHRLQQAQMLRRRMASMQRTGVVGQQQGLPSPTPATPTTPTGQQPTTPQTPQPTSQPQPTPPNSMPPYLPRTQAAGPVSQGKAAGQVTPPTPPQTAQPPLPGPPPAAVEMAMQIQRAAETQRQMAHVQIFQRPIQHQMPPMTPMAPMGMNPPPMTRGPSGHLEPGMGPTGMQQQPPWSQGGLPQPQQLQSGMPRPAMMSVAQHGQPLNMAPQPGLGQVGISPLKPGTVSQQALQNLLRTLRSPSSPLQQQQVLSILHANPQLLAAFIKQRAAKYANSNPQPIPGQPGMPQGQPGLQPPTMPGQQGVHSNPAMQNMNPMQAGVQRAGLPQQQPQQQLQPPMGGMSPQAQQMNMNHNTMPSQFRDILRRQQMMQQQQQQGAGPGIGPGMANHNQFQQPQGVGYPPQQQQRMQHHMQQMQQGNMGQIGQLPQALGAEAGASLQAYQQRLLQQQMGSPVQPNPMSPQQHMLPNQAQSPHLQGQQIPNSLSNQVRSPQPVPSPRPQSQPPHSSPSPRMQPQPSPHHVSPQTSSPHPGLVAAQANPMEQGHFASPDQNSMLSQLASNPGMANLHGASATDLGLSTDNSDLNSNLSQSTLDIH

Structure (SMILES): COc1cccc(OC)c1C(=O)Nc1ccc(Cl)c(C(F)(F)F)c1 [RA010115]
- H3-Lys 27 EC50 (p300; EC50 for activators): NO ACTIVITY
- EC50 (p300; EC50 for activators, read-out: H3-Lys 18 EC50): 0.137 µM
- H3-Lys 27 IC50 (p300; IC50 for inhibitors): NO ACTIVITY
- oTau- and oAβ-induced defects in RAWM performance (mice; mice administered oAβ (200 nM) or oTau (500 nM), compound 5 mg/kg, 5 mg/kg): rescued the deficit; also recorded: rescues
- RAWM performance, compound alone (mice; mice treated with only compound): not impaired
